Reference: patent US9517221B2, “(2R)-2-propyloctanoic acid for functional brain disease” (ONO PHARMACEUTICAL CO., LTD., priority 2006, dated 2016)

Test system: olfactory bulbectomized rats
Test: Hyperemotional reactivity (hyperemotional score) of olfactory bulbectomized rats
Type: in vivo, rat
Design: key to Hyperemotional score (mean ± S. E.), One day administration, Before administration / Hyperemotional score (mean ± S. E.), One day administration, After administration / Hyperemotional score (mean ± S. E.), Seven days administration, Before administration / Hyperemotional score (mean ± S. E.), Seven days administration, After administration: irritability score per Gomita et al. (1983) criteria
Conditions: for Hyperemotional score (mean ± S. E.), Seven days administration, After administration: 1 hour to 1 hour 10 minutes after 7 days administration; for Hyperemotional score (mean ± S. E.), Seven days administration, Before administration: before administration of the 7 days administration; for Hyperemotional score (mean ± S. E.), One day administration, After administration: 1 hour to 1 hour 10 minutes after 1 day administration; for Hyperemotional score (mean ± S. E.), One day administration, Before administration: baseline before grouping, 12 animals
Description: SPF rats (Crlj: WI) were used in the test. The animal for olfactory bulbectomy was anesthetized with pentobarbital sodium (Nembutal R Injection, Dainippon Pharmaceutical, dose: 1 mL/kg (intraperitoneal administration)), and the head was fixed using a brain stereotaxic apparatus (ASI Instruments, Inc., NARISHIGE). After incising the head skin, holes are opened at right and left olfactory bulb regions of the skull using a dental drill (manufactured by MINITOR), and the right and left olfactory bulbs were removed by sucking them using an aspirator connected to a tip-removed oral sonde, and the head skin was stitched thereafter. In this connection, in the case of the animals for sham-operation, anesthesia, brain fixation and head skin incision were carried out in the same manner as in the animals for olfactory bulbectomy, holes are opened at right and left olfactory bulb regions of the skull and the head skin was stitched without carrying out suction removal of the olfactory bulbs. The rats after olfactory bulbectomy were put into a series of five stainless steel cages, each of which was partitioned into two parts with an acrylic board for individual rearing space, and individually reared under a dark condition. The rats were subjected to the following tests of (2) and (3).
• (a) Sham-operation group (12 animals); • (b) Vehicle control group (12 animals); • (c) 3 mg/kg administration group (12 animals) of (2R)-2-propyloctanoic acid; • (d) 10 mg/kg administration group (12 animals) of (2R)-2-propyloctanoic acid; • (e) 10 mg/kg administration group (12 animals) of Milnacipran hydrochloride. [Drug Administration]
As shown below, drug solution or vehicle was administered once a day for 8 days, a total of 8 times, at a respective liquid dose of 5 mL/kg. • (a) Sham-operation group: vehicle (0.1% by volume Tween 80) aqueous solution; • (b) Vehicle control group: vehicle (0.1% by volume Tween 80) aqueous solution; • (c) 3 mg/kg administration group of (2R)-2-propyloctanoic acid: a drug solution in which (2R)-2-propyloctanoic acid was prepared to be 0.6 mg/mL with the vehicle; • (d) 10 mg/kg administration group of (2R)-2-propyloctanoic acid: a drug solution in which (2R)-2-propyloctanoic acid was prepared to be 2.0 mg/mL with the vehicle; • (e) 10 mg/kg administration group of milnacipran hydrochloride: a drug solution in which Milnacipran hydrochloride was prepared to be 2.3 mg/mL with the vehicle (Milnacipran itself is included in 2.0 mg/mL). (2) Examination of the Activity for Hyperemotional Reactivity <Evaluation Method>
Evaluation of the hyperemotional reactivity was carried out (1) before the grouping, (2) from 1 hour to 1 hour and 10 minutes after administration of the 1 day drug administration, (3) before administration of the 7 days administration and (4) from 1 hour to 1 hour and 10 minutes after the administration (a total of 4 times), by scoring the degree of irritability once a rat in accordance with the following evaluation criteria of hyperemotional reactivity (hyperemotional score: prepared based on the method of Gomita et al. (Folia Pharmacologica Japonica, 82, 267, 1983). Additionally, all of the conditions of the evaluation were shot and recorded using a video camera (SSC-DC430, SONY) and handled as reference data.

Structure (SMILES): CCCCCC[C@@H](CCC)C(=O)O [(2R)-2-propyloctanoic acid]
- Development of hyperemotionality versus vehicle control group (1st day and 7th day of the administration, result in words): inhibited development of hyperemotionality
- Hyperemotional score (mean ± S. E.), Seven days administration, After administration (dose 3 mg/kg once a day): 5.9 ± 1.5
- Hyperemotional score (mean ± S. E.), Seven days administration, Before administration (dose 3 mg/kg once a day): 6.3 ± 1.0
- Hyperemotional score (mean ± S. E.), One day administration, After administration (dose 3 mg/kg): 8.8 ± 1.4
- Hyperemotional score (mean ± S. E.), One day administration, Before administration (dose 3 mg/kg): 20.0 ± 0.0
- Hyperemotional score (mean ± S. E.), Seven days administration, After administration (dose 10 mg/kg once a day): 4.8 ± 0.8
- Hyperemotional score (mean ± S. E.), Seven days administration, Before administration (dose 10 mg/kg once a day): 6.7 ± 1.4
- Hyperemotional score (mean ± S. E.), One day administration, After administration (dose 10 mg/kg): 7.4 ± 0.9
- Hyperemotional score (mean ± S. E.), One day administration, Before administration (dose 10 mg/kg): 20.0 ± 0.0
